Reference: patent US20250304535A1, “KAT6 Inhibitors” (BeiGene Switzerland GmbH, priority 2024, published 2025)

Columns and labels:
[1] = system: histone H3K23 acetylation in U-2 OS cells; assay: Histone H3 lysine 23 acetylation assay in U-2 OS cells (high content analysis); type: cell-based; details: 24 hrs exposure, H3K23ac level
Experimental: Assay B: Histone H3 lysine 23 Acetylation Assay
Compounds were tested for their capacity to suppress the histone H3K23 acetylation in the following high content analysis assay.
The cell line U-2 OS (ATCC HTB-96) was seeded at a density of 2000 cells per well in black 384 well cell culture/imaging microplates in 45 μl McCoy's 5A medium with […]. After overnight incubation in 37° C., 5% CO2 incubator, cells were then treated with a 9-point dilution series of compounds and a blank control group with medium containing 0.1% DMSO.
Following a 24 hrs exposure to the compounds, the cells were fixed with 4% immunohistochemical fixative for 20 mins at room temperature, washed with DPBS with 2% fetal bovine serum, and permed with Perm Buffer III for 30 min on ice, washed with DPBS with 2% fetal bovine serum. Then the cells were blocked with Odyssey blocking buffer containing 0.1% Tween 20. 20 ul Anti-Histone H3 (acetyl K23) antibody (Abcam, ab177275) in odyssey blocking buffer containing 0.1% Tween20 was added and incubated overnight at 4° C. After incubation, the cells were washed for 3 times and a secondary antibody Anti-rabbit IgG (H+L), F(ab′)2 Fragment (Alexa Fluor® 647 Conjugate) (CST, 4414S) were added into cells for one hour. The cells were washed and 1 ug/ml DAPI (Thermo, 62248) were added for 10 min. Then cells were washed and read on the PerkinElmer Operetta CLS high content analysis system. The nuclei were identified by DAPI and H3K23ac level was calculated from the Alexa Fluor 647 intensity in the nuclei. Inhibition rate of H3K23ac was calculated as the mean intensity of cells per well relative to blank controls on the same plate.

[2] = biological target: Recombinant human KAT6B protein (657-1069) (Homo sapiens (Human), UniProt Q8WYB5); assay: KAT6B biochemical TR-FRET assay; details: histone H4 peptide 1000 nM, AcCoA 100 nM, enzyme 5 nM
Experimental: Enzymatic reactions of KAT6A and KAT6B were performed using Fluorescence Resonance Energy Transfer (TR-FRET) assay, which measures acetylation of a synthetic, biotinylated histone-H4 peptide by the KAT6A and KAT6B enzymes. Recombinant human KAT6A protein (497-780) were expressed in BL21 cell using an E. coli expression system. Recombinant human KAT6B protein (657-1069) was expressed in sf9 cell using a baculovirus expression system. Histone H4 peptide (SEQ ID NO: 1—[…]-GGK-Biotin), which was used as substrate, was synthesized by GL Biochem, Shanghai, China. Acetyl coenzyme A was purchased from Sigma-Aldrich (#A-2056).
(§1) Testing for the inhibition activities of various compounds disclosed herein was carried out at room temperature in assay buffer containing 100 mM Tris/HCl Ph7.8, 15 mM NaCl, 0.01% chicken egg white albumin, 1 mM DTT and 0.01% Tween-20. Compounds in DMSO were dispensed into wells of a black, 384-well plate (Corning 4514) using ECHO555 (Beckman). The final concentration ranges of the test compounds were 0.0625-1,000 nM, 0.625-10,000 nM, or 0.313-5,000 nM. Five μL of KAT6A or KAT6B enzyme solution were added to wells, and the plate was incubated for 1 hour at room temperature (rt). After incubation for 1 hour at rt, 5 μL H4 and AcCoA substrate solutions were added to the wells to initiate reaction, and the plate was incubated. After 2 hours reaction, 5 μL detection reagent were added to the wells, and the plate was incubated for 2 hours. After two hours incubation, detection reagent containing 5 nM Anti-histone H4 antibody (ABCAM #ab177790), 100 μM formic acid (sigma #06473-100ML), 0.1 test/μL streptavidin-XL665 (PerkinElmer #610SAXLG), 0.05 test/μL PAb anti-rabbit IgG-Eu (PerkinElmer μ61PARKLA) was added to the wells. TR-FRET was measured on a microplate reader (PHERAstar FSX, BMG labtech). The IC50s were calculated based on inhibition of enzyme activity in the presence of increasing concentrations of test compounds, and the results are shown in Table 6. In Table 6, I≤5 nM, 5 nM<II≤50 nM.

[3] = biological target: Recombinant human KAT6A protein (497-780) (Homo sapiens (Human), UniProt Q92794); assay: KAT6A biochemical TR-FRET assay; details: histone H4 peptide 2000 nM, AcCoA 300 nM, enzyme 5 nM
Experimental: Enzymatic reactions of KAT6A and KAT6B were performed using Fluorescence Resonance Energy Transfer (TR-FRET) assay, which measures acetylation of a synthetic, biotinylated histone-H4 peptide by the KAT6A and KAT6B enzymes. Recombinant human KAT6A protein (497-780) were expressed in BL21 cell using an E. coli expression system. Recombinant human KAT6B protein (657-1069) was expressed in sf9 cell using a baculovirus expression system. […] Acetyl coenzyme A was purchased from Sigma-Aldrich (#A-2056).
as §1, with “The IC50s were calculated based on inhibition of enzyme activity in the presence of increasing concentrations of test compounds, and the results are shown in Table 6.” left out

Recombinant human KAT6A protein (497-780), sequence (Q92794 497-780): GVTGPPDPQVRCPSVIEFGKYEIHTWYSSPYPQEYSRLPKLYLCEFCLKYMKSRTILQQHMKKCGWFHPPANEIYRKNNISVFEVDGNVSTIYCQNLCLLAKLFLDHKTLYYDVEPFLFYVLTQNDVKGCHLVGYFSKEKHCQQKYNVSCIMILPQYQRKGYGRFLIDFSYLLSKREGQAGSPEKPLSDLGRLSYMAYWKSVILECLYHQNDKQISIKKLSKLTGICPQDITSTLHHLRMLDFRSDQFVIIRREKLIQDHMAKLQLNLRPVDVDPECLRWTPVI
Recombinant human KAT6B protein (657-1069), sequence (Q8WYB5 657-1069): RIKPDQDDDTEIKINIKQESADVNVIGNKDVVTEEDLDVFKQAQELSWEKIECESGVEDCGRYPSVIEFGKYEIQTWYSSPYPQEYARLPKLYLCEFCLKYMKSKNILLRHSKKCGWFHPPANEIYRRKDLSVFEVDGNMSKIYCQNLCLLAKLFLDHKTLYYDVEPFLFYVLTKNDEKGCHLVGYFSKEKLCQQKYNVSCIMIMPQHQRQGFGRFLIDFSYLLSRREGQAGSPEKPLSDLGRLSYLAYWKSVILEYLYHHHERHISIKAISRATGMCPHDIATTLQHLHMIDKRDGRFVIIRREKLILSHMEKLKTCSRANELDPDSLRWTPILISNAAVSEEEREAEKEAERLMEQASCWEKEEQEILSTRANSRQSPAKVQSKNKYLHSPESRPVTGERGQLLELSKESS

SMILES	IC50 ([1]; Homo sapiens, U2OS) [nM]	IC50 [2] [nM]	IC50 [3] [nM]	IC50 [1] [nM]
C=Cc1cc(C(=O)NS(=O)(=O)c2c(OC)ccc3c2OC(C)(C)C3)ccc1Cn1cccn1 [Example C44, 4-((1H-pyrazol-1-yl)methyl)-N-((6-methoxy-2,2-dimethyl-2,3-dihydrobenzofuran-7-yl)sulfonyl)-3-vinylbenzamide]	≤ 10	≤ 5	≤ 5	–
COc1cc(C(=O)NS(=O)(=O)c2c(OC)ccc3c2OC(C)(C)C3)ccc1Cn1cccn1 [Example C45, 4-((1H-pyrazol-1-yl)methyl)-3-methoxy-N-((6-methoxy-2,2-dimethyl-2,3-dihydrobenzofuran-7-yl)sulfonyl)benzamide]	≤ 10	≤ 5	≤ 5	–
COc1ccc2c(c1S(=O)(=O)NC(=O)c1ccc(Cn3cccn3)c(C3CC3)n1)OC(C)(C)C2 [Example C46, 5-((1H-pyrazol-1-yl)methyl)-6-cyclopropyl-N-((6-methoxy-2,2-dimethyl-2,3-dihydrobenzofuran-7-yl)sulfonyl)picolinamide]	≤ 10	≤ 5	≤ 5	–
COc1ccc2c(c1S(=O)(=O)NC(=O)c1ccc(Cn3cccn3)c(C3CC3)n1)OCC2(C)C [Example C47, 5-((1H-pyrazol-1-yl)methyl)-6-cyclopropyl-N-((6-methoxy-3,3-dimethyl-2,3-dihydrobenzofuran-7-yl)sulfonyl)picolinamide]	≤ 10	≤ 5	≤ 5	–
COc1ccc(C(C)(C)C)nc1S(=O)(=O)NC(=O)c1ccc(Cn2cccn2)c(C2CC2)n1 [Example C48, 5-((1H-pyrazol-1-yl)methyl)-N-((6-(tert-butyl)-3-methoxypyridin-2-yl)sulfonyl)-6-cyclopropylpicolinamide]	≤ 10	≤ 5	≤ 5	–
COc1cc(C(=O)NS(=O)(=O)c2c(OC)ccc3c2OCC3(C)C)ccc1Cn1cccn1 [Example C49, 4-((1H-pyrazol-1-yl)methyl)-3-methoxy-N-((6-methoxy-3,3-dimethyl-2,3-dihydrobenzofuran-7-yl)sulfonyl)benzamide]	≤ 10	≤ 5	≤ 5	–
C=Cc1cc(C(=O)NS(=O)(=O)c2c(OC)ccc3c2OCC3(C)C)ccc1Cn1cccn1 [Example C50, 4-((1H-pyrazol-1-yl)methyl)-N-((6-methoxy-3,3-dimethyl-2,3-dihydrobenzofuran-7-yl)sulfonyl)-3-vinylbenzamide]	≤ 10	≤ 5	≤ 5	–
CCc1cc(C(=O)NS(=O)(=O)c2c(OC)ccc3c2OCC3(C)C)ccc1Cn1cccn1 [Example C51, 4-((1H-pyrazol-1-yl)methyl)-3-ethyl-N-((6-methoxy-3,3-dimethyl-2,3-dihydrobenzofuran-7-yl)sulfonyl)benzamide]	≤ 10	≤ 5	≤ 5	–
CCc1cc(C(=O)NS(=O)(=O)c2c(OC)ccc3c2OC(C)(C)C3)ccc1Cn1cccn1 [Example C52, 4-((1H-pyrazol-1-yl)methyl)-3-ethyl-N-((6-methoxy-2,2-dimethyl-2,3-dihydrobenzofuran-7-yl)sulfonyl)benzamide]	≤ 10	≤ 5	≤ 5	–

Further lines, results first:

IC50 ([1]; Homo sapiens, U2OS) [nM]	IC50 [2] [nM]	IC50 [3] [nM]	IC50 [1] [nM]	SMILES
≤ 10	≤ 5	≤ 5	–	COc1ccc(C(C)(C)C)nc1S(=O)(=O)NC(=O)c1ccc(Cn2cccn2)c(C(F)F)c1 [Example C36, 4-((1H-pyrazol-1-yl)methyl)-N-((6-(tert-butyl)-3-methoxypyridin-2-yl)sulfonyl)-3-(difluoromethyl)benzamide]
≤ 10	≤ 5	≤ 5	–	COc1ccc(C(C)(C)C)nc1S(=O)(=O)NC(=O)c1ccc(Cn2ccc(N)n2)c(OC)n1 [Example C37, 5-((3-amino-1H-pyrazol-1-yl)methyl)-N-((6-(tert-butyl)-3-methoxypyridin-2-yl)sulfonyl)-6-methoxypicolinamide]
–	≤ 5	≤ 5	≤ 10	COc1cc(C(=O)NS(=O)(=O)c2nc(C(C)(C)C)ccc2OC)ccc1Cn1cc(N)cn1 [Example C38]
≤ 10	≤ 5	≤ 5	–	COc1ccc2c(c1S(=O)(=O)NC(=O)c1ccc(Cn3cccn3)c(OC)n1)OCCC2(C)C [Example C39, 5-((1H-pyrazol-1-yl)methyl)-6-methoxy-N-((7-methoxy-4,4-dimethylchroman-8-yl)sulfonyl)picolinamide]
≤ 10	≤ 5	≤ 5	–	COc1ccc(C(C)(C)C)cc1S(=O)(=O)NC(=O)c1ccc(Cn2cccn2)c(OC)n1 [Example C40, 5-((1H-pyrazol-1-yl)methyl)-N-((5-(tert-butyl)-2-methoxyphenyl)sulfonyl)-6-methoxypicolinamide]
≤ 10	≤ 5	≤ 5	–	COc1ccc(C(C)(C)C)nc1S(=O)(=O)NC(=O)c1ccc(Cn2cccn2)c(OC)n1 [Example C41, 5-((1H-pyrazol-1-yl)methyl)-N-((6-(tert-butyl)-3-methoxypyridin-2-yl)sulfonyl)-6-methoxypicolinamide]
≤ 10	≤ 5	≤ 5	–	COc1ccc2c(c1S(=O)(=O)NC(=O)c1ccc(Cn3cccn3)c(OC)n1)OC(C)(C)C2 [Example C42, 5-((1H-pyrazol-1-yl)methyl)-6-methoxy-N-((6-methoxy-2,2-dimethyl-2,3-dihydrobenzofuran-7-yl)sulfonyl)picolinamide]
≤ 10	≤ 5	≤ 5	–	COc1ccc2c(c1S(=O)(=O)NC(=O)c1ccc(Cn3cccn3)c(OC)n1)OCC2(C)C [Example C43, 5-((1H-pyrazol-1-yl)methyl)-6-methoxy-N-((6-methoxy-3,3-dimethyl-2,3-dihydrobenzofuran-7-yl)sulfonyl)picolinamide]
